Test results as given in patent US20070208087A1, “Compounds, compositions and methods for the treatment of inflammatory diseases” (priority 2001, published 2007).
“And” between values parts separate entries of the source, which are not always exact repeats. Identical values can stand only once. Like-named read-outs stand apart in the source and are kept apart here.

How the values were obtained:
Format in all cases: cell-based
[1] = system: Microglial cells; assay: Dose response inhibition of NO release from microglia, 0.5-500 μM (Example 9); settings: for inhibition at 0.5 µM / inhibition at 1 µM / inhibition at 100 µM / inhibition at 250 µM / inhibition at 500 µM / μM NO release / μM NO release (No LPS average subtracted) / % inhibition: 48 hours; for μM NO release / μM NO release (No LPS average subtracted): 3 replicates
Method: This experiment was designed to determine the dose response inhibition of NO release from microglia by bis- and tris-dihydroxyaryl compounds when stimulated with LPS/IFNγ. Earlier experiments have demonostrated that some bis- and tris-dihydroxyaryl compounds are good inhibitors of NO release from microglia. This experiment is designed to determine a dose response for various effective bis- and tris-dihydroxyaryl compounds. Microglial cells were plated into 96 well plates at 1×10^5 cells/ml. At 48 hours, media was exchanged for media containing 10 ng/ml IFNγ and 10 μg/ml LPS and the following compounds 3, 4, 21, 26 and the positive control L-NAME. The doses tested were: 0.5 μM, 1.0 μM, 5.0 μM, 10 μM, 25 μM, 50 μM, 100 μM, 250 μM, and 500 μM. Nitric oxide release was measured after 48 hours using the Griess reaction.

[2] = system: EOC 13.31 microglia cells; assay: Inhibition of NO release from microglia following 24 hours pretreatment (Example 10); settings: for inhibition at 50 µM: Microglia
Outline: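 Confluent EOC 13.31 cells pretreated 24 hours with 50 μM compound (from 10 mM DMSO stock), then stimulated with 10 μg/ml LPS plus 10 ng/ml IFNγ without media change. After a further 48 hours, NO release was measured by Griess Reaction.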

[3] = system: microglia; assay: Ranking of NO release inhibition (Example 12); settings: Microglia, ranking table
Source text: The bis- and tris-dihydroxyaryl compounds were ranked in order of effectiveness for the inhibition of NO release as set out in Table 8.

With `Oc1ccc(CNCc2ccc(O)c(O)c2)cc1O` [Compound 73, bis(3,4-dihydroxybenzyl)amine] as the compound, how does the inhibition at 0.5 µM ([1]; Microglia, 48 h, dose 0.5 μM, NO release, LPS/IFNγ, read-out: Avg % Inhibition) read?
Its inhibition at 0.5 µM is 12.7%.

And the inhibition at 0.5 µM ([1]; Microglia, 48 h, dose 0.5 μM, individual replicates, NO release, LPS/IFNγ, read-out: % inhibition)?
The inhibition at 0.5 µM was 15.5%.

And the inhibition at 1 µM ([1]; Microglia, 48 h, dose 1 μM, NO release, LPS/IFNγ, read-out: Avg % Inhibition)?
The inhibition at 1 µM was 16.5%.

What about the inhibition at 1 µM ([1]; Microglia, 48 h, dose 1 μM, individual replicates, NO release, LPS/IFNγ, read-out: % inhibition) of the same compound?
Its inhibition at 1 µM is 17.7%.

And the inhibition at 5 µM ([1]; Microglia, 48 h, dose 5 μM, NO release, LPS/IFNγ)?
The inhibition at 5 µM was 1.5%.

What about the inhibition at 10 µM ([1]; Microglia, 48 h, dose 10 μM, NO release, LPS/IFNγ) of the same compound?
Its inhibition at 10 µM is 1.75%.

What about the inhibition at 25 µM ([1]; Microglia, 48 h, dose 25 μM, NO release, LPS/IFNγ) of the same compound?
The inhibition at 25 µM was 0.75%.

And the inhibition at 50 µM ([1]; Microglia, 48 h, dose 50 μM, NO release, LPS/IFNγ)?
Its inhibition at 50 µM is 0.25%.

What about the inhibition at 100 µM ([1]; Microglia, 48 h, dose 100 μM, NO release, LPS/IFNγ, read-out: Avg % Inhibition) of the same compound?
Its inhibition at 100 µM is 33%.

What about the inhibition at 100 µM ([1]; Microglia, 48 h, dose 100 μM, individual replicates, NO release, LPS/IFNγ, read-out: % inhibition) of the same compound?
Its inhibition at 100 µM is 31.2%.

And the inhibition at 250 µM ([1]; Microglia, 48 h, dose 250 μM, NO release, LPS/IFNγ, read-out: Avg % Inhibition)?
Its inhibition at 250 µM is 45.3%.

And the inhibition at 250 µM ([1]; Microglia, 48 h, dose 250 μM, individual replicates, NO release, LPS/IFNγ, read-out: % inhibition)?
Its inhibition at 250 µM is 46.7%.

What about the inhibition at 500 µM ([1]; Microglia, 48 h, dose 500 μM, NO release, LPS/IFNγ, read-out: Avg % Inhibition) of the same compound?
The inhibition at 500 µM was 72.3%.

What about the inhibition at 500 µM ([1]; Microglia, 48 h, dose 500 μM, individual replicates, NO release, LPS/IFNγ, read-out: % inhibition) of the same compound?
The inhibition at 500 µM was 72.6%.

And the inhibition at 500 µM ([1]; Microglia, 48 h, highest concentration tested (500 μM), read-out: inhibited NO release by)?
Its inhibition at 500 µM is 72%.

What about the “μM NO release” value ([1]; dose 0.5 μM, LPS/IFNγ) of the same compound?
Its value is 17.361 µM and 18.194 µM and 18.056 µM.

What about the “μM NO release (No LPS average subtracted)” value ([1]; dose 0.5 μM, LPS/IFNγ) of the same compound?
The value was 15.66 µM and 16.49 µM and 16.36 µM.

And the “% inhibition” value ([1]; dose 0.5 μM, individual replicates, NO release, LPS/IFNγ)?
The value was 10.99% and 11.74%.

And the “μM NO release” value ([1]; dose 1 μM, LPS/IFNγ)?
Its value is 16.944 µM and 16.806 µM and 17.778 µM.

And the “μM NO release (No LPS average subtracted)” value ([1]; dose 1 μM, LPS/IFNγ)?
Its value is 15.25 µM and 15.11 µM and 16.08 µM.

And the “% inhibition” value ([1]; dose 1 μM, individual replicates, NO release, LPS/IFNγ)?
Its value is 18.49% and 13.25%.

And the “μM NO release” value ([1]; dose 5 μM, LPS/IFNγ)?
The value was 20.000 µM and 19.583 µM and 20.278 µM.

What about the “μM NO release (No LPS average subtracted)” value ([1]; dose 5 μM, LPS/IFNγ) of the same compound?
Its value is 18.30 µM and 17.88 µM and 18.58 µM.

What about the “% inhibition” value ([1]; dose 5 μM, individual replicates, NO release, LPS/IFNγ) of the same compound?
Its value is 1.25% and 3.50% and −0.25%.

And the “μM NO release” value ([1]; dose 10 μM, LPS/IFNγ)?
The value was 18.889 μM and 20.417 μM (2×).

And the “μM NO release (No LPS average subtracted)” value ([1]; dose 10 μM, LPS/IFNγ)?
Its value is 17.19 μM and 18.72 μM (2×).

And the “% inhibition” value ([1]; dose 10 μM, individual replicates, NO release, LPS/IFNγ)?
Its value is 7.24% and −1.00% (2×).

And the “μM NO release” value ([1]; dose 25 μM, LPS/IFNγ)?
Its value is 19.167 µM and 20.139 µM and 20.972 µM.

What about the “μM NO release (No LPS average subtracted)” value ([1]; dose 25 μM, LPS/IFNγ) of the same compound?
Its value is 17.47 µM and 18.44 µM and 19.27 µM.

And the “% inhibition” value ([1]; dose 25 μM, individual replicates, NO release, LPS/IFNγ)?
Its value is 5.75% and 0.50% and −4.00%.

And the “μM NO release” value ([1]; dose 50 μM, LPS/IFNγ)?
Its value is 19.444 µM and 19.861 µM and 21.250 µM.

And the “μM NO release (No LPS average subtracted)” value ([1]; dose 50 μM, LPS/IFNγ)?
Its value is 17.74 µM and 18.16 µM and 19.55 µM.

And the “% inhibition” value ([1]; dose 50 μM, individual replicates, NO release, LPS/IFNγ)?
Its value is 4.25% and 2.00% and −5.50%.

What about the “μM NO release” value ([1]; dose 100 μM, LPS/IFNγ) of the same compound?
The value was 14.444 µM and 13.056 µM and 14.861 µM.

And the “μM NO release (No LPS average subtracted)” value ([1]; dose 100 μM, LPS/IFNγ)?
The value was 12.74 µM and 11.36 µM and 13.16 µM.

And the “% inhibition” value ([1]; dose 100 μM, individual replicates, NO release, LPS/IFNγ)?
Its value is 38.72% and 28.98%.

What about the “μM NO release” value ([1]; dose 250 μM, LPS/IFNγ) of the same compound?
The value was 11.569 µM and 10.904 µM and 13.056 µM.

What about the “μM NO release (No LPS average subtracted)” value ([1]; dose 250 μM, LPS/IFNγ) of the same compound?
The value was 9.87 µM and 9.20 µM and 11.36 µM.

And the “% inhibition” value ([1]; dose 250 μM, individual replicates, NO release, LPS/IFNγ)?
Its value is 50.33% and 38.72%.

What about the “μM NO release” value ([1]; dose 500 μM, LPS/IFNγ) of the same compound?
The value was 6.782 µM and 6.516 µM and 7.181 µM.

And the “μM NO release (No LPS average subtracted)” value ([1]; dose 500 μM, LPS/IFNγ)?
Its value is 5.08 µM and 4.82 µM and 5.48 µM.

What about the “% inhibition” value ([1]; dose 500 μM, individual replicates, NO release, LPS/IFNγ) of the same compound?
Its value is 74.01% and 70.42%.

And the “μM NO release” value ([2]; 50 uM pretreatment 24 hours, then LPS/IFNγ 48 hours, single replicates)?
Its value is 0.000 µM.

And the inhibition at 50 µM ([2]; 50 uM pretreatment 24 hours, then LPS/IFNγ 48 hours, read-out: Avg % Inhibition)?
The inhibition at 50 µM was 100%.

And the inhibition at 50 µM ([2]; 50 uM pretreatment 24 hours, then LPS/IFNγ 48 hours, single replicates, read-out: % inhibition)?
The inhibition at 50 µM was 100%.

What about the inhibition at 50 µM ([2]; 50 μM pretreatment, read-out: inhibition of NO release following pretreatment) of the same compound?
The inhibition at 50 µM was > 75%.

What about the inhibition at 50 µM [3] of the same compound?
Its inhibition at 50 µM is 2%.
